Measurements: US20150140123A1, “Protein expression analyses for identifying genotoxic compounds” (Merck Patent GmbH, priority 2012, published 2015)
Where two headings read alike, the source gives them in different places.

System: HepG2 cells
Assay: High content imaging cytotoxicity parameters: selected cell count per valid field (SCC) and CMFDA cytoplasm average intensity
Description: HepG2 cells (Order No. HB-8065, Lot. 58483209, ATCC, Manassas, USA) were cultured in DMEM/F12 with L-Glutamine and 15 mM Hepes supplemented with 10% (v/v) FBS, 1% (v/v) penicillin (10 kU/ml)/streptomycin (10 mg/ml) solution, 0.1% (v/v) gentamicin (50 mg/ml), and 1 mM sodium pyruvate at 37° C. and 5% CO2 in culture flasks. Depending on the experiment, an appropriate number of cells were seeded onto plates after detaching of the cells using trypsin and cells were cultured at 37° C. and 5% CO2 for 24 h prior to treatment. All experiments were performed three times with cells of passages 4-20.
Cells were seeded onto black Poly-D-Lysin coated 96-well-plates (BD Biocoat, Franklin Lakes, USA) (0.02×10^6 cells/well) and left 24 h for adherence and then treated with test compounds at a maximum concentration of 1 mM which is recommended by the ICH S2(R1) guideline (EMA, 2011). For each compound, nine concentrations were tested with 2-fold serial dilutions. DMSO 1% (v/v) served as vehicle control for the experiments. The treatment procedure was different for direct-genotoxic and pro-genotoxic compounds. The treatment for direct genotoxic compounds was ongoing and was repeated daily over 48 h. Pro-genotoxic compounds were incubated for 6 h together with metabolic activation system (to limit the cytotoxic effect of the S9-mixture). After this period, cells were washed with cell media followed by 18-repeated daily over 48 h. The metabolic activation system used consisted of the following components and concentrations: 8 mM MgCl2, 32.8 mM KCl, 12 mM NADPH, 124 mM phosphate buffer and 2500 pmol/ml cytochrome P450 (CYP) content in the pre-mixture corresponding to 2.4 mM MgCl2, 9.8 mM KCl, 3.6 mM NADPH, 37.2 mM phosphate buffer, and 750 pmol/ml CYP as final concentrations after dilution 1:3.33 with cell culture media.
After treatment, cells were rinsed with PBS (Gibco Invitrogen, Karlsruhe, Germany), and then stained with 10 μM CellTracker Green 5-Chloromethylfluorescein Diacetate (CMFDA) (Invitrogen, Karlsruhe, Germany) in cell culture media for 30 min. CMFDA is per se non-fluorescent and is hydrolyzed by esterase in viable cells to a fluorescent-dye. The reaction with thiol groups leads to a cell-impermeable fluorescent-dye-adduct. The esterase activity can be used as an indicator for viability of cells (Papadopoulos et al., 1994, J Immunol Methods 177, 101-11). Afterwards, cells were washed with PBS and fixed with 3.7% Formaldehyde (Sigma-Aldrich, Taufkirchen, Germany) in PBS for 20 min. After that, cells were washed with PBS and blocked and permeabilized with 2% donkey serum (Millipore, Schwalbach, Germany) and 0.25% Triton X-100 (Sigma-Aldrich, Taufkirchen, Germany) in PBS for 30 min. Primary antibodies were diluted in Blocking/Permeabilization solution to final concentrations of 4 μg/ml anti-p-Chk1 (Ser345) goat polyclonal antibody IgG (santa cruz, Santa Cruz, USA), 4 μg/ml anti-p-ATM (Ser1981) mouse monoclonal antibody IgG1K (Millipore, Schwalbach, Germany) and added to the cells. After incubation for 16-18 h, cells were washed with 0.05% Tween 20 (Calbiochem, Darmstadt, Germany) in PBS, and the secondary antibody/16 μM Hoechst staining solution Blocking/Permeabilization solution was added. Secondary antibodies were diluted 1:400 (Alexa Fluor 555 donkey anti-goat, Alexa Fluor 647 donkey anti-mouse, Invitrogen, Karlsruhe, Germany). After an incubation of 1 h, followed by two additional washing steps with 0.05% Tween 20, cells were washed with PBS and finally PBS was added and cells were measured.
Image acquisition was performed on the ArrayScan VTI HCS Reader (Cellomics, Pittsburgh, USA) using a 20× objective. To detect enough cells, 50 images starting at the middle of each well were gathered.
• Channel 1: selected cell count per valid field • Channel 2: CMFDA cytoplasm average intensity • Channel 3: p-Chk1 (Ser345) nucleus average intensity • Channel 4: p-ATM (Ser1981) nucleus average intensity

[1] = HepG2 cells, 48 h, CMFDA cytoplasm average intensity, with rat liver S9 (+S9)
[2] = HepG2 cells, 48 h, CMFDA cytoplasm average intensity, without metabolic activation (−S9)
[3] = HepG2 cells, 48 h, selected cell count per valid field, with rat liver S9 (+S9)
[4] = HepG2 cells, 48 h, selected cell count per valid field, without metabolic activation (−S9)

Row | Compound | CMFDA +S9 highest conc. <50% cytotox. over control (human, 48 h) | CMFDA −S9 highest conc. <50% cytotox. over control (human, 48 h) | SCC +S9 highest conc. <50% cytotox. over control (human, 48 h) | SCC −S9 highest conc. <50% cytotox. over control (human, 48 h) | CMFDA +S9 highest conc. <50% cytotox. over control [1] | CMFDA −S9 highest conc. <50% cytotox. over control [2] | SCC +S9 highest conc. <50% cytotox. over control [3] | SCC −S9 highest conc. <50% cytotox. over control [4] | other results
1 | O=C1CCCCC1 [Cyclohexanone] | 1000 µM | 1000 µM | 1000 µM | 1000 µM | – | – | – | – | –
2 | ClC(Cl)(Cl)C(Cl)(Cl)Cl [Hexachloroethane] | – | – | – | – | 1000 µM | 1000 µM | 1000 µM | 1000 µM | –
3 | c1ccncc1 [Pyridine] | – | – | – | – | – | – | – | – | CMFDA +S9 highest conc. <50% cytotox. over control (human): 1000 µM; CMFDA −S9 highest conc. <50% cytotox. over control (human): 1000 µM; SCC +S9 highest conc. <50% cytotox. over control (human): 1000 µM; SCC −S9 highest conc. <50% cytotox. over control (human): 1000 µM
4 | CCc1cc(C(N)=S)ccn1 [Ethionamide] | 1000 µM | 1000 µM | 1000 µM | 1000 µM | – | – | – | – | –
5 | CC(C)[C@@H]1CC[C@@H](C)C[C@H]1O [D,L-menthol] | – | – | – | – | – | – | – | – | CMFDA +S9 highest conc. <50% cytotox. over control: 1000 µM; CMFDA −S9 highest conc. <50% cytotox. over control: 1000 µM; SCC +S9 highest conc. <50% cytotox. over control: 1000 µM; SCC −S9 highest conc. <50% cytotox. over control: 1000 µM
6 | O=[As]O [Sodium arsenite] | – | – | – | – | 125 µM | 62.5 µM | 125 µM | 7.81 µM | –
7 | COc1cc([C@@H]2c3cc4c(cc3[C@@H](O[C@@H]3O[C@@H]5CO[C@@H](C)O[C@H]5[C@H](O)[C@H]3O)[C@H]3COC(=O)[C@H]23)OCO4)cc(OC)c1O [Etoposide] | 1000 µM | 1000 µM | 1000 µM | – | – | – | – | – | –
8 | COC(N)=O [Methyl carbamate] | – | – | – | – | 1000 µM | 1000 µM | 1000 µM | 1000 µM | –
9 | CC(C)C=O [Isobutyraldehyde] | 1000 µM | 1000 µM | 1000 µM | 1000 µM | – | – | – | – | –
10 | Nc1ccccc1C(=O)O [o-Anthranilic acid] | – | – | – | – | 1000 µM | 1000 µM | 1000 µM | 1000 µM | –
11 | Sodium xylene sulfonate | – | – | – | – | 1000 µM | 1000 µM | 1000 µM | 1000 µM | –
12 | CCCCC(CC)COP(=O)(OCC(CC)CCCC)OCC(CC)CCCC (stereo not shown) [Tris(2-ethylhexyl)phosphate] | – | – | – | – | 1000 µM | 7.813 µM | 1000 µM | 500 µM | –
13 | CCCCC(CC)COC(=O)c1ccccc1C(=O)OCC(CC)CCCC (stereo not shown) [Di-(2-ethylhexyl)phthalate] | – | – | – | – | – | – | – | – | CMFDA +S9 highest conc. <50% cytotox. over control (human): 1000 µM; CMFDA −S9 highest conc. <50% cytotox. over control (human): 1000 µM; SCC +S9 highest conc. <50% cytotox. over control (human): 1000 µM; SCC −S9 highest conc. <50% cytotox. over control (human): 1000 µM
14 | CC[C@H]1OC(=O)[C@H](C)[C@@H](O[C@H]2C[C@@](C)(OC)[C@@H](O)[C@H](C)O2)[C@H](C)[C@@H](O[C@@H]2O[C@H](C)C[C@H](N(C)C)[C@H]2O)[C@](C)(O)C[C@@H](C)C(=O)[C@H](C)[C@@H](O)[C@]1(C)O [Erythromycin stearate] | – | 62.5 µM | – | 31.25 µM | – | – | – | – | –
15 | Cn1c(N)nc2c3cccnc3ccc21 [IQ, 2-Amino-3methylimidazo[4,5-f]quinoline] | – | – | – | – | 125 µM | 1000 µM | 125 µM | 1000 µM | –
16 | O=C1OC(=O)c2ccccc21 [Phthalic anhydride] | – | – | – | – | 1000 µM | 1000 µM | 1000 µM | 1000 µM | –
17 | NC(=S)N(C1CCCCC1)C1CCCCC1 [N,N-dicyclohexyl thiourea] | 500 µM | 1000 µM | 1000 µM | 500 µM | – | – | – | – | –
18 | Oc1ccc(O)cc1 [Hydroquinone] | 1000 µM | 250 µM | 1000 µM | 250 µM | – | – | – | – | –
19 | CC(=O)O[C@H]1C(=O)[C@@]2(C)[C@H]([C@H](OC(=O)c3ccccc3)[C@]3(O)C[C@H](OC(=O)[C@H](O)[C@@H](NC(=O)c4ccccc4)c4ccccc4)C(C)=C1C3(C)C)[C@]1(OC(C)=O)CO[C@@H]1C[C@@H]2O [Taxol] | 1000 µM | 1000 µM | 500 µM | 1000 µM | – | – | – | – | –
20 | CC1(C)S[C@@H]2[C@H](NC(=O)[C@H](N)c3ccccc3)C(=O)N2[C@H]1C(=O)O [Ampicillin trihydrate] | 1000 µM | 1000 µM | 1000 µM | 1000 µM | – | – | – | – | –
21 | OCCNCCO [Diethanolamine] | 1000 µM | 1000 µM | 1000 µM | 1000 µM | – | – | – | – | –
22 | CC(=O)Nc1ccc2c(c1)Cc1ccccc1-2 [2-Acetylaminofluorene] | – | – | – | – | 1000 µM | 1000 µM | 1000 µM | 1000 µM | –
